Laboratory results as given in patent US20060025390A1, “Treatment of hormone allergy and related symptoms and disorders” (priority 2004, published 2006).

How the values were obtained:
[1] = tested on: serum IgM anti-estrogen antibodies; assay: ELISA binding of IgM estrogen antibodies to different hormones in solid phase; set-up: species or system human; details: for IgM anti-estrogen binding: relative to estrogen, over three sera; for IgM binding (optical density): hormone in solid phase, 405 nm; for IgM % reaction: relative to estrogen = 100
Protocol: (§1) The ELISA inhibition method was used to determine specificity and cross-reactivity between different hormones and to ensure the degree of human IgG, IgM and IgE estrogen or progesterone binding to estrogen or progesterone in solid phase. […] 100 μl of sera from three different patients with high IgG, IgM or IgE antibodies against 17-α-hydroxyprogesterone was added to all wells. After shaking and incubation for 1 hr at room temperature, addition of enzyme labeled anti-human IgG, IgM or IgE, repeat of incubation, washing, and addition of substrate, color development was measured at 405 nm. Results were calculated as percentage of anti-17-α-hydroxyprogesterone binding to 17-α-hydroxyprogesterone and other hormones. Also, anti-estrogen binding to estrogen and other hormones in solid phase by progesterone in liquid phase was performed and calculated in a similar manner.
(§2) Human sera containing 17-α-hydroxyprogesterone IgG-, IgM- and IgE-binding antibodies were reacted against progesterone, estrogen, hydrocortisone and cholesterol. In comparison to 100% binding of anti-17-α-hydroxyprogesterone-binding to 17-α-hydroxyprogesterone, the IgG anti-17-α-hydroxyprogesterone-binding to progesterone, estrogen, hydrocortisone and cholesterol was 69-77%, 25-30%, 39-53%, and less than 10% respectively (Table 4). The % binding of serum IgM and IgE anti-17-α-hydroxyprogesterone to 17-1-hydroxyprogesterone, progesterone, estrogen, hydrocortisone and cholesterol was similar to the binding of IgG. This binding of anti-17-α-hydroxyprogesterone to progesterone was the highest, followed by hydrocortisone, then estrogen, to almost no binding with cholesterol. Similar to this, human sera with IgG, IgM and IgE binding antibodies against estrogen were reacted with progesterone, 17-α-hydroxyprogesterone, hydrocortisone and cholesterol, in the presence of estrogen.

[2] = tested on: serum IgG anti-estrogen antibodies; assay: ELISA binding of IgG estrogen antibodies to different hormones in solid phase; set-up: species or system human; details: for IgG anti-estrogen binding: relative to estrogen, over three sera; for IgG binding (optical density): hormone in solid phase, 405 nm; for IgG % reaction: relative to estrogen = 100
Protocol: as §1, §2

[3] = tested on: serum IgM anti-17-α-hydroxyprogesterone antibodies; assay: ELISA binding of IgM 17-α-hydroxyprogesterone antibodies to different hormones in solid phase; set-up: species or system human; details: for IgM binding (optical density): hormone in solid phase, 405 nm; for IgM % reaction: relative to 17-α-hydroxyprogesterone = 100
Protocol: as §1, §2

[4] = tested on: serum IgE anti-estrogen antibodies; assay: ELISA binding of IgE estrogen antibodies to different hormones in solid phase; set-up: species or system human; details: for IgE anti-estrogen binding: relative to estrogen, over three sera; for IgE binding (optical density): hormone in solid phase, 405 nm; for IgE % reaction: relative to estrogen = 100
Protocol: as §1, §2

[5] = tested on: serum IgE anti-17-α-hydroxyprogesterone antibodies; assay: ELISA binding of IgE 17-α-hydroxyprogesterone antibodies to different hormones in solid phase; set-up: species or system human; details: for IgE binding (optical density): hormone in solid phase, 405 nm; for IgE % reaction: relative to 17-α-hydroxyprogesterone = 100
Protocol: as §1, §2

[6] = tested on: serum IgG anti-17-α-hydroxyprogesterone antibodies; assay: ELISA binding of IgG 17-α-hydroxyprogesterone antibodies to different hormones in solid phase; set-up: species or system human; details: for IgG anti-17-α-hydroxyprogesterone binding: in comparison to 100% binding to 17-α-hydroxyprogesterone, over three sera; for IgG binding (optical density): hormone in solid phase, 405 nm; for IgG % reaction: relative to 17-α-hydroxyprogesterone = 100
Protocol: as §1, §2

[7] = tested on: serum IgG anti-estrogen antibodies; assay: Competition ELISA: absorption of serum IgG anti-estrogen with specific and non-specific antigens; format: binding, human; details: for inhibition of anti-estrogen binding to estrogen (IgG): antigen in liquid phase, over the three sera; for IgG level after absorption: absorption with 250 μg/mL, optical density 405 nm
Protocol: (§3) For this, microtiter plates were coated with hormones and blocked by the addition of 2% BSA in PBST. 100 μl of serum diluent buffer was added to all wells. […] After 60 minutes incubation 100 μl serum anti-estrogen or anti-progesterone was added to all wells. […] Results were calculated as percentage of inhibition in antigen-antibody reaction.
(§4) To examine whether antibodies to estrogen or progesterone are specific or cross-reactive, we performed competition ELISA by adding specific and non-specific antigens in liquid phase and examined prevention of serum antibody binding to the antigen in solid phase. […] For IgE anti-estrogen, this inhibition by estrogen-BSA was between 54-62%, and with progesterone-BSA, from 37-43%. […] This cross-reaction between estrogen and progesterone antibodies may be due to structural similarities between these two hormones.

[8] = tested on: serum IgE anti-estrogen antibodies; assay: Competition ELISA: absorption of serum IgE anti-estrogen with specific and non-specific antigens; format: binding, human; details: for inhibition of IgE anti-estrogen binding: antigen in liquid phase, over the three sera; for IgE level after absorption: absorption with 250 μg/mL, optical density 405 nm
Protocol: as §3, §4

[9] = serum sample 1, before absorption 1.83
[10] = serum sample 2, before absorption 1.25
[11] = serum sample 3, before absorption 0.76
[12] = serum sample 1, before absorption 2.15
[13] = serum sample 2, before absorption 1.66
[14] = serum sample 3, before absorption 1.34

Molecule: CC(C)CCC[C@@H](C)[C@H]1CC[C@H]2[C@@H]3CC=C4C[C@@H](O)CC[C@]4(C)[C@H]3CC[C@]12C [C, Cholesterol]
- IgM anti-estrogen binding [1]: not significant
- IgM binding (optical density) ([1]; sample 1): 0.13
- IgM binding (optical density) ([1]; sample 2): 0.25
- IgM % reaction ([1]; sample 2): −12%
- IgM binding (optical density) ([1]; sample 3): 0.24
- IgM % reaction ([1]; sample 3): −18%
- IgG anti-estrogen binding [2]: not significant
- IgG binding (optical density) ([2]; sample 1): 0.12
- IgG binding (optical density) ([2]; sample 2): 0.19
- IgG binding (optical density) ([2]; sample 3): 0.15
- IgM binding (optical density) ([3]; sample 1): 0.18
- IgM binding (optical density) ([3]; sample 2): 0.19
- IgM binding (optical density) ([3]; sample 3): 0.15
- IgE anti-estrogen binding [4]: not significant
- IgE binding (optical density) ([4]; sample 1): 0.15
- IgE binding (optical density) ([4]; sample 2): 0.21
- IgE % reaction ([4]; sample 2): −14%
- IgE binding (optical density) ([4]; sample 3): 0.28
- IgE % reaction ([4]; sample 3): −17%
- IgE binding (optical density) ([5]; sample 1): 0.2
- IgE binding (optical density) ([5]; sample 2): 0.23
- IgE % reaction ([5]; sample 2): −10%
- IgE binding (optical density) ([5]; sample 3): 0.18
- IgG anti-17-α-hydroxyprogesterone binding [6]: less than 10%
- IgG binding (optical density) ([6]; sample 1): 0.21
- IgG % reaction ([6]; sample 1): −13%
- IgG binding (optical density) ([6]; sample 2): 0.12
- IgG binding (optical density) ([6]; sample 3): 0.17

Molecule: CC(=O)[C@@]1(O)CC[C@H]2[C@@H]3CCC4=CC(=O)CC[C@]4(C)[C@H]3CC[C@@]21C [HP, 17-α-hydroxy-progesterone]
- IgM binding (optical density) ([1]; sample 1): 0.34
- IgM % reaction ([1]; sample 1): −38%
- IgM binding (optical density) ([1]; sample 2): 0.88
- IgM % reaction ([1]; sample 2): −42%
- IgM binding (optical density) ([1]; sample 3): 0.59
- IgM % reaction ([1]; sample 3): −45%
- IgG binding (optical density) ([2]; sample 1): 0.42
- IgG % reaction ([2]; sample 1): −35%
- IgG binding (optical density) ([2]; sample 2): 0.75
- IgG % reaction ([2]; sample 2): −42%
- IgG binding (optical density) ([2]; sample 3): 0.52
- IgG % reaction ([2]; sample 3): −57%
- IgM binding (optical density) ([3]; sample 1): 1.3
- IgM % reaction ([3]; sample 1): −100%
- IgM binding (optical density) ([3]; sample 2): 1.2
- IgM % reaction ([3]; sample 2): −100%
- IgM binding (optical density) ([3]; sample 3): 0.92
- IgM % reaction ([3]; sample 3): −100%
- IgE binding (optical density) ([4]; sample 1): 0.22
- IgE % reaction ([4]; sample 1): −28%
- IgE binding (optical density) ([4]; sample 2): 0.65
- IgE % reaction ([4]; sample 2): −43%
- IgE binding (optical density) ([4]; sample 3): 0.73
- IgE % reaction ([4]; sample 3): −46%
- IgE binding (optical density) ([5]; sample 1): 1.45
- IgE % reaction ([5]; sample 1): −100%
- IgE binding (optical density) ([5]; sample 2): 2.4
- IgE % reaction ([5]; sample 2): −100%
- IgE binding (optical density) ([5]; sample 3): 1.1
- IgE % reaction ([5]; sample 3): −100%
- IgG anti-17-α-hydroxyprogesterone binding [6]: 100%
- IgG binding (optical density) ([6]; sample 1): 1.6
- IgG % reaction ([6]; sample 1): −100%
- IgG binding (optical density) ([6]; sample 2): 0.95
- IgG % reaction ([6]; sample 2): −100%
- IgG binding (optical density) ([6]; sample 3): 0.68
- IgG % reaction ([6]; sample 3): −100%

Molecule: C[C@]12CCC(=O)C=C1CC[C@@H]1[C@@H]2[C@@H](O)C[C@@]2(C)[C@H]1CC[C@]2(O)C(=O)CO [HC, Hydrocortisone]
- IgM anti-estrogen binding [1]: not significant
- IgM binding (optical density) ([1]; sample 1): 0.16
- IgM binding (optical density) ([1]; sample 2): 0.44
- IgM % reaction ([1]; sample 2): −21%
- IgM binding (optical density) ([1]; sample 3): 0.23
- IgM % reaction ([1]; sample 3): −18%
- IgG anti-estrogen binding [2]: not significant
- IgG binding (optical density) ([2]; sample 1): 0.15
- IgG binding (optical density) ([2]; sample 2): 0.31
- IgG % reaction ([2]; sample 2): −17%
- IgG binding (optical density) ([2]; sample 3): 0.18
- IgM binding (optical density) ([3]; sample 1): 0.47
- IgM % reaction ([3]; sample 1): −36%
- IgM binding (optical density) ([3]; sample 2): 0.5
- IgM % reaction ([3]; sample 2): −39%
- IgM binding (optical density) ([3]; sample 3): 0.51
- IgM % reaction ([3]; sample 3): −55%
- IgE anti-estrogen binding [4]: not significant
- IgE binding (optical density) ([4]; sample 1): 0.17
- IgE binding (optical density) ([4]; sample 2): 0.29
- IgE % reaction ([4]; sample 2): −19%
- IgE binding (optical density) ([4]; sample 3): 0.25
- IgE % reaction ([4]; sample 3): −16%
- IgE binding (optical density) ([5]; sample 1): 0.58
- IgE % reaction ([5]; sample 1): −40%
- IgE binding (optical density) ([5]; sample 2): 1.2
- IgE % reaction ([5]; sample 2): −50%
- IgE binding (optical density) ([5]; sample 3): 0.68
- IgE % reaction ([5]; sample 3): −39%
- IgG anti-17-α-hydroxyprogesterone binding [6]: 39-53%
- IgG binding (optical density) ([6]; sample 1): 0.69
- IgG % reaction ([6]; sample 1): −43%
- IgG binding (optical density) ([6]; sample 2): 0.37
- IgG % reaction ([6]; sample 2): −39%
- IgG binding (optical density) ([6]; sample 3): 0.36
- IgG % reaction ([6]; sample 3): −53%

Molecule: bovine serum albumin [BSA]
- inhibition of anti-estrogen binding to estrogen (IgG) [7]: did not significantly absorb
- IgG level after absorption [7, 9]: 1.79
- IgG level after absorption [7, 10]: 1.13
- IgG level after absorption [7, 11]: 0.81
- inhibition of IgE anti-estrogen binding [8]: did not significantly absorb
- IgE level after absorption [8, 12]: 2.24
- IgE level after absorption [8, 13]: 1.53
- IgE level after absorption [8, 14]: 1.26

B1: myelin basic protein (protein, UniProt P02686 1-304, looked up)
Myelin basic protein: MGNHAGKRELNAEKASTNSETNRGESEKKRNLGELSRTTSEDNEVFGEADANQNNGTSSQDTAVTDSKRTADPKNAWQDAHPADPGSRPHLIRLFSRDAPGREDNTFKDRPSESDELQTIQEDSAATSESLDVMASQKRPSQRHGSKYLATASTMDHARHGFLPRHRDTGILDSIGRFFGGDRGAPKRGSGKDSHHPARTAHYGSLPQKSHGRTQDENPVVHFFKNIVTPRTPPPSQGKGRGLSLSRFSWGAEGQRPGFGYGGRASDYKSAHKGFKGVDAQGTLSKIFKLGGRDSRSGSPMARR
- inhibition of anti-estrogen binding to estrogen (IgG) [7]: did not significantly absorb
- IgG level after absorption [7, 9]: 1.67
- IgG level after absorption [7, 10]: 1.13
- IgG level after absorption [7, 11]: 0.68
- inhibition of IgE anti-estrogen binding [8]: did not significantly absorb
- IgE level after absorption [8, 12]: 2.05
- IgE level after absorption [8, 13]: 1.73
- IgE level after absorption [8, 14]: 1.11
